Source: patent US10160948B2, “Pluripotent embryonic-like stem cells, compositions, methods and uses thereof” (ABT HOLDING COMPANY, priority 1999, dated 2018)
Marks after values point to notes of the source that are not given here.

Assays:
cardiac myocytes = assay: Beat rate of binucleated beating cells in dexamethasone-treated Swiss-3T3 cultures exposed to isoproterenol and propanolol; format: cell-based, mouse
Text: The wells were then washed six times with EMEM+10% horse serum and viewed on a Nikon Diaphot with fluorescent attachment. • Cardiac muscle—Cardiac myocytes were identified based on their large binucleated nuclei and their reactions to inotropic and chronotropic agents.

[1] = test system: cells isolated from granulation tissue; assay: Dexamethasone treatment of cells from granulation tissue (wound chambers), assays for phenotypes; format: cell-based, rat
Swiss-3T3 cells = assay: Dexamethasone treatment of Swiss-3T3 cells, assay of phenotypes; format: cell-based, mouse
Method: Frozen 3T3 cells were then thawed, cell viability was determined using 0.4% Typan Blue in PBS with a hemocytometer (Denhardt et al., 1991; Domin and Rozengurt, 1993), and the cells were plated in 24 well plates (Corning Glassworks, Corning, N.Y.), precoated with 1% gelatin at a density of 5000 cells/well. Cells were cultured in EMEM containing 10% horse serum and varying concentrations of dexamethasone (Sigma, Salom, Mo.). Four wells served as controls and received medium without dexamethasone. Four wells each received medium containing 10^−10 M, 10^−9 M, 10^−8 M, 10^−7 M, 10^−6 M dexamethasone. The medium was changed every other day and cultures were examined using phase contrast microscopy for the appearance of different phenotypes.
• Bone—The presence of calcified tissue was assayed by Von Kossa's staining of calcium phosphate as described by Humason. Briefly, the culture medium was removed, and the plates were rinsed twice with the DPBS. The cells were fixed with 0.5 ml of 10% formalin for 3-5 minutes, then rinsed four times with distilled water. One half of a milliliter of freshly prepared 2% silver nitrate solution was then added, and the cells were incubated in the dark for 10 minutes. After incubation, the silver nitrate solution was removed and the cells were rinsed five times with distilled water. Approximately 0.5 ml of distilled water was left on each well. The plate was exposed to bright light for 15 minutes against a white background to reflect light. The plates were again rinsed five times with distilled water and quickly dehydrated with 100% ethanol. The plates were made permanent with glycerin jelly. Confirmation of the presence of calcium phosphate was performed by pretreating selected cultures with 1% weight/volume [ethylene bis(oxyethylenenitrilo)]-tetraacetic acid, a specific calcium chelator, in Ca, MG-free buffer for 1 hour before incubation in the silver nitrate solution. • Muscle—The cells were stained with the MF-20 antibody to sarcomeric myosin (Hybridoma Bank, Ames Iowa) by means of a modified procedure of Young et. al., 1992b. […]

pluripotent stem cells = assay: Proliferation and phenotypic responses to bioactive factors: pluripotent cells; format: cell-based; conditions: for Phenotypic Expression, Pluripotent: presence and approximate distribution of differentiated phenotypes within the culture wells
Text: (§1) Having access to mixed populations of progenitor stem cells, progenitor stem cell clones, and pluripotent stem cell clones permits one to address the influence of various bioactive factors (e.g. recombinant growth factors, purified compounds, and novel inductive factors) on the growth characteristics and phenotypic expression of these stem cells.
(§2) Cryopreserved cells are thawed and plated in MSC-1 at 5, 10, or 20×10^3 cells per well of gelatinized 24-well plates following the standard protocol. Twenty-four hours after initial plating the medium is changed to testing medium (TM) 1 to 6 (TM-1, TM-2, TM-3, TM-4, TM-5, or TM-6). TM-1 to TM-4 consist of Ultraculture (cat. no. 12-725B, lot. nos. OMO455 [TM-1], 1M1724 [TM-2], 2M0420 [TM-3], or 2M0274 [TM-4], Bio-Whittaker, Walkersville, Md.), medium (EMEM or Opti-MEM 0.01 mM β-mercaptoethanol), and 1% (v/v) antibiotic-antimycotic, pH 7.4. TM-5 consists of 98% (v/v) medium, 1% (v/v) HS, and 1% (v/v) antibiotic-antimycotic, pH 7.4. TM-6 consists of 98.5% (v/v) medium, 0.5% (v/v) HS, and 1% (v/v) antibiotic-antimycotic, pH 7.4. […] Four testing media (TM#'s 1-4), each containing various concentrations of Ultraculture, were used as. […] The four Ultraculture-based testing media were: TM-1=15% (v/v) Ultraculture (Lot no. OMO455): 84% (v/v) medium: 1% (v/v) antibiotics; TM-2=15% (v/v) Ultraculture (Lot no. 1M1724): 84% (v/v) medium: 1% (v/v) antibiotics; TM-3=50% (v/v) Ultraculture (Lot no. 2M0420): 49% (v/v) medium: 1% (v/v) antibiotics; and TM-4=75% (v/v) Ultraculture (Lot no. 2M0274): 24% (v/v) medium: 1% (v/v) antibiotics. Pre-incubation for 24 hr in testing medium alone is used to wash out any potential synergistic components in the MSC-1 medium. Twenty-four hours later the testing medium is changed to one of the following. For controls, TM-1 to TM-6 alone is used. To identify clones of progenitor cells, the medium is replaced with TM-1 to TM-6 containing 2 μg/ml insulin (Sigma), an agent that accelerates the appearance of phenotypic expression markers in progenitor cells (TABLE 12). To identify clones of pluripotent cells, the medium is replaced with TM-1 to TM-6 containing 10^−10 to 10^−6 M dexamethasone (Sigma), a general non-specific lineage-inductive agent (TABLE 13). Control and treated cultures are propagated for an additional 30-45 days with medium changes every other day. Four culture wells are used per concentration per experiment. During the 0-45 day time period the cultures are examined subjectively for changes in morphological characteristics on a daily basis. Alterations in phenotypic expression are correlated with the days of treatment and associated insulin or dexamethasone concentrations. The experiment is then repeated utilizing these parameters to confirm objectively the phenotypic expression markers using established histological, functional/histochemical, ELICA/flow cytometry, and molecular assays (TABLE 13).

progenitor stem cells = assay: Proliferation and phenotypic responses to bioactive factors: progenitor cells; format: cell-based; conditions: for Phenotypic Expression, Progenitor: presence and approximate distribution of differentiated phenotypes within the culture wells
Text: as §1, §2

Molecule	beat rate (cardiac myocytes; cells treated with 10^−6 M isoproterenol) [beats per minute]	Beats per minute (cardiac myocytes; n = 5, 10−6M)	dexamethasone concentrations at which cartilage nodules appeared [1]	dexamethasone concentrations at which fibroblasts appeared ([1]; after 3 weeks)	dexamethasone concentrations at which adipocytes appeared ([1]; first appeared at 2 weeks)	dexamethasone concentration at which binucleated beating cells appeared (Swiss-3T3 cells; 4 weeks in culture)	dexamethasone concentration at which myotubes appeared (Swiss-3T3 cells; 14 days)	dexamethasone concentration at which most adipocytes appeared (Swiss-3T3 cells; after two weeks treatment)	Proliferation, Pluripotent: number of times the agent increased the DNA content per well versus its respective control (pluripotent stem cells)	Proliferation, Progenitor: number of times the agent increased the DNA content per well versus its respective control (progenitor stem cells)	activity on pluripotent and progenitor stem cells, in words (pluripotent stem cells)	Phenotypic Expression, Pluripotent (pluripotent stem cells)	Phenotypic Expression, Progenitor (progenitor stem cells)
CC(C)NCC(O)c1ccc(O)c(O)c1 (stereo not shown) [Isoproteronol, isoproterenol]	85	87.4± * Beats per minute											
C[C@@H]1C[C@H]2[C@@H]3CCC4=CC(=O)C=C[C@]4(C)[C@@]3(F)[C@@H](O)C[C@]2(C)[C@@]1(O)C(=O)CO [Dex, dexamethasone]			10^−9-10^−6 M	10^−9-10^−7 M	10^−8-10^−6 M	10^−7-10^−6 M	10^−9-10^−6 M	10^−8-10^−6 M	−	−			
IGF-I: insulin-like growth factor-I									1 times	1 times	stimulated lineage-progression in all progenitor cells, but had no measurable effect on pluripotent cells	0	All+++
PDGF-AA: Platelet-derived growth factor-AA									16^b times	16 times	stimulated proliferation in pluripotent cells and in all lineages of progenitor cells	0	All+
PDGF-BB: platelet-derived growth factor-BB									19 times	19 times	stimulated proliferation in pluripotent cells and in all lineages of progenitor cells	0	All+
IGF-II: insulin-like growth factor-II									1 times	1 times	stimulated lineage-progression in all progenitor cells, but had no measurable effect on pluripotent cells	0	All+++
b-FGF: Basic-fibroblast growth factor									1 times	1 times	stimulated lineage-progression in fibrogenic progenitor cells, inhibited lineage-progression in all other progenitor cells, and had no effect on pluripotent cells	0	F++
TGF-β									−^c	−	stimulated lineage-progression in fibrogenic progenitor cells, inhibited lineage-progression in all other progenitor cells, and had no effect on pluripotent cells	0	F++
